Reference: US12428428B2, “Tricyclic tetrahydroisoquinoline derivative, preparation method therefor and application thereof in medicine” (JIANGSU HENGRUI MEDICINE CO., LTD., priority 2020, dated 2025)

Columns and labels:
MCF-7 cells = assay: Inhibition of proliferation of MCF-7 cells (ATP method, Cell Titer-Glo); assay type: cell-based; conditions: Homo sapiens, MCF7; MCF-7 cells, 72 h
Method: This experiment was intended to test the inhibitory effects of the compounds disclosed herein on the proliferation of MCF-7 Cells by using the ATP method, and to evaluate the in vitro activity of the compounds according to the IC50 values.
MCF-7 cells (TCHu74, National Collection of Authenticated Cell Cultures) were seeded into a 96-well plate with an MEM (hyclone, SH30024.01B) medium containing 10% FBS (Gibco, 10099-141), 1% sodium pyruvate (sigma, 58636) and 1% non-essential amino acid (sigma, M7145) at a density of 4,000 cells/well and cultured at 37° C. with 5% CO2. 20 mM stock solutions of the compounds are prepared, serially diluted with 100% DMSO to a final concentration of 1000×, and then diluted 20-fold with a medium containing 2% FBS. After the cells were cultured for 24 h, the medium was removed. 90 μL of the medium containing 2% FBS and 10 μL of a drug were added to each well, and 10 μL of DMSO was added to the control group. The mixtures were well mixed by gentle shaking. The blank group contained only 100 μL of the medium containing 2% FBS. The cells were cultured in an incubator at 37° C. with 5% CO2 for 72 h, and then 50 μL of mixed Cell Titer-Glo (Promega, G7571) was added to each well. The mixtures were well mixed by shaking and let stand at room temperature for 10 min, and the chemiluminescence signal values were determined.
The chemiluminescence signal value was plotted against the compound concentration (in log form) using Graphpad Prism, and the IC50 values of the compounds were obtained.

ERα = ERα (Homo sapiens (Human), UniProt P03372); assay: Degradation of ERα in MCF-7 cells (ELISA); assay type: cell-based; parameters: Dmax: dose or concentration left out as unconfirmed; conditions: for Dmax at 3 µM: MCF7, read-out: Emax degradation (%); for DC50: MCF-7 cells, 16 to 18 h, read-out: EC50 (nM), degradation of ERα
Chain of ERα (P03372 whole entry): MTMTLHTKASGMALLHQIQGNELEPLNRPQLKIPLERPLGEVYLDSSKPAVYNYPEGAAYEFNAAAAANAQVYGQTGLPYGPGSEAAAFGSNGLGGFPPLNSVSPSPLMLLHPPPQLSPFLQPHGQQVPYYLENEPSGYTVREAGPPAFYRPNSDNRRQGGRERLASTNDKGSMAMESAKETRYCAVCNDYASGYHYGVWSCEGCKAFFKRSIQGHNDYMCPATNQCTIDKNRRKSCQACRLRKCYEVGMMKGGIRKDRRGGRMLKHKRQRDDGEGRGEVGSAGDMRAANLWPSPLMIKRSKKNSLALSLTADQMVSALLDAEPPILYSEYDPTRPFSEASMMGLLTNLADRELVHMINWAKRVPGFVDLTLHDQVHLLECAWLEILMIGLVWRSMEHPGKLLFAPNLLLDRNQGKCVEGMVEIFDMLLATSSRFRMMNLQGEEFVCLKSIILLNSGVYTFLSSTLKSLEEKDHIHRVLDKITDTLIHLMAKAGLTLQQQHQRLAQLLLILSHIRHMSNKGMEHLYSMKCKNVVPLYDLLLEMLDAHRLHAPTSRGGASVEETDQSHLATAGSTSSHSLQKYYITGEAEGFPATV
Method: ERα-positive breast cancer cell line MCF-7 cells were cultured in a DMEM/F12 medium (HyClone, SH30023.01) containing 10% fetal bovine serum (Corning, 35-010-CV). […] The following day the compounds were serially diluted with DMSO and further diluted with the phenol red-free DMEM/F12 medium containing 5% charcoal-stripped fetal bovine serum. 20 μL of a diluted compound was added to each well of the 48-well plate at final concentrations of 3000, 300, 30, 3, 0.3, 0.03 and 0.003 nM. The 48-well plate was placed in the incubator for 16 to 18 h. A 96-well plate was coated with the capture antibody from the human ERα/NR3A1 total protein assay kit (R&D, DYC5715-5). […] The plate was placed in an incubator at 26° C. overnight. On day 3, the antibody-coated 96-well plate was washed once with PBS, and 200 μL of PBS containing 1% BSA was added to each well. The plate was incubated in an incubator at 37° C. for 1.5 h to be blocked. The cell culture medium supernatant was discarded. The cells were washed once with PBS, and 60 μL of a cell lysis buffer was added to each well. […] The cells were lysed on ice for 15 min, and 300 μL of PBS containing 1 mM EDTA and 0.5% TritonX-100 was added to each well to dilute the urea to 1 M. The blocking buffer in the blocked 96-well plate was discarded, and 100 μL of diluted cell lysis buffer was added to each well. The plate was incubated in an incubator at 37° C. for 2 h and washed 5 times with PBS. A biotinylated assay antibody was diluted to 0.4 μg/mL with PBS containing 1% BSA, and then 100 μL of the assay antibody was added to each well. The plate was incubated in an incubator at 37° C. for 1 h. The plate was then washed five more times, and 100 μL of avidin-HRP diluted 200-fold with PBS containing 1% BSA was added to each well. The plate was incubated at 37° C. for 30 min. The plate was washed five more times, and 100 μL of TMB substrate was added to each well. The plate was incubated at room temperature until blue color appeared, and 100 μL of stop solution was added to each well. OD450 signal values were read using a PHERAstar multi-mode microplate reader. The IC50 values for the inhibitory activity of the compounds were calculated using Graphpad Prism software.

CYP3A4 = CYP3A4 (Homo sapiens (Human), UniProt P08684); assay: Time-dependent inhibition of site of metabolism of testosterone in human liver microsome CYP3A4; assay type: in vitro ADME; conditions: testosterone substrate; for IC50 shift at 30 min: human, human liver microsomes, probe testosterone (75 µM)
Chain of CYP3A4 (P08684 whole entry): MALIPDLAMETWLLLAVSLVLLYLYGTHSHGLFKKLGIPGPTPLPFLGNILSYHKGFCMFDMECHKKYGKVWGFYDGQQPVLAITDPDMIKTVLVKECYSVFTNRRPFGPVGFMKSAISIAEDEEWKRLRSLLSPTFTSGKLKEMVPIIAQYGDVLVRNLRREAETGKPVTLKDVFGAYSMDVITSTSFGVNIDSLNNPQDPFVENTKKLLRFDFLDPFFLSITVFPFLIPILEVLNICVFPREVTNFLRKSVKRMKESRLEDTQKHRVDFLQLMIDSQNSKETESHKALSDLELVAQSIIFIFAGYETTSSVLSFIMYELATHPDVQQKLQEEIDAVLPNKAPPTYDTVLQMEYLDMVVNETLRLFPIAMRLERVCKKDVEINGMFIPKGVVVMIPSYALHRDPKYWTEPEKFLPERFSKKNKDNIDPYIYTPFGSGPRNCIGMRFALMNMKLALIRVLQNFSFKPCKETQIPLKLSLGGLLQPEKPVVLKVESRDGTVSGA
Method: • 1. Phosphate buffer (20×PBS, purchased from Sangon); • 2. NADPH (ACROS, A2646-71-1); • 3. Human liver microsome (Corning Gentest, Cat No, 452161, Lot No. 905002, Donor36); • 4. ABI QTrap 4000 LC-MS System (AB Sciex); • 5. ZORBAX Extend-C18, 3×50 mm, 3.5 μm (Agilent, USA); • 6. CYP probe substrate (testosterone, Vocko, CAS No. [58-22-0]/75 μM) and positive control inhibitor (verapamil, Adamas Reagent Co Ltd, Cat No. 25904A).
A 100 mM PBS buffer was prepared. A 0.25 mg/mL microsome solution, a 7.5 mM MgCl2 and a 5 mM NADPH solution were prepared using the buffer. A 30 mM stock solution was diluted with DMSO to obtain 30 mM, 10 mM, 3 mM, 1 mM, 0.3 mM, 0.1 mM, 0.03 mM and 0 mM serial solutions I, which were further diluted 200-fold with phosphate buffer (PBS) to obtain serial test solutions II (150, 50, 15, 5, 1.5, 0.5, 0.15 and 0 μM). A midazolam working solution was diluted with PBS to 15 μM.
The serial test solutions prepared above were well mixed by shaking and aliquoted in 20 μL portions into corresponding reaction plates (+NADPH, T0 and −NADPH groups were set). Three parallel tests were set. 40 μL of the liver microsome working solution was added to each 96-well plate. 20 μL of a corresponding substrate solution was added to the T0 plate. 20 μL of NADPH was added to the TO plate and +NADPH group. A timer was started, and the plates were incubated in a water bath at 37° C. After 30 min of incubation, the TO plate was taken out, and the reaction was terminated with 250 μL of an internal standard-containing ACN solution. The +NADPH group was supplemented with 20 μL of the corresponding substrate solution, and the −NADPH group was supplemented with 20 μL of the corresponding substrate solution and […]. A timer was started, and the plates were incubated in a water bath at 37° C. After 30 min of incubation, the plates were taken out, and the reactions were terminated with 250 μL of an internal standard-containing ACN solution. Then the plates were shaken on a shaker at 800 rpm for 10 min and centrifuged at 4000 rpm for 15 min. 100 μL of the supernatant and 80 μL of ultrapure water were well mixed and subjected to LC-MS/MS analysis.
The IC50 values of the drugs for the site of metabolism of testosterone in CYP3A4 were calculated using Graphpad Prism and are shown in Table 8.

[1] = 30 min pre-incubation with NADPH

Which IC50 (MCF-7 cells) does the source give for `[2H]C1([2H])Oc2cc3c(cc2O1)[C@@H](c1ccc(N[C@H]2CCN(CCCF)C2)cn1)N(CC(F)(F)CO)[C@H](C)C3` [Example 12, 2,2-Difluoro-3-((5S,7R)-5-(5-(((S)-1-(3-fluoropropyl)pyrrolidin-3-yl)amino)pyridin-2-yl)-7-methyl-7,8-dihydro-[1,3]dioxolo[4,5-g]isoquinolin-6(5H)-yl-2,2-d2)propan-1-ol] here?
The IC50 was 1.12 nM.

And the Dmax at 3 µM (ERα)?
The Dmax at 3 µM was 101%.

What about the DC50 (ERα) of the same compound?
Its DC50 is 0.15 nM.

What about the IC50 shift at 30 min (CYP3A4) of the same compound?
Its IC50 shift at 30 min is 0.5.

And the IC50 (CYP3A4; [1])?
The IC50 was 11600 nM.

And the IC50 (CYP3A4; pre-incubation without NADPH)?
The IC50 was 25200 nM.

Which results are given for `C[C@@H]1Cc2cc3c(cc2[C@@H](c2ccc(N[C@H]4CCN(CCCF)C4)cn2)N1CC(F)(F)CO)OCO3` [Example 4, 2,2-Difluoro-3-((5S,7R)-5-(5-(((S)-1-(3-fluoropropyl)pyrrolidin-3-yl)amino)pyridin-2-yl)-7-methyl-7,8-dihydro-[1,3]dioxolo[4,5-g]isoquinolin-6(5H)-yl)propan-1-ol]?
IC50 (MCF-7 cells): 0.28 nM; Dmax at 3 µM (ERα): 115%; DC50 (ERα): 0.21 nM; IC50 shift at 30 min (CYP3A4): 1; IC50 (CYP3A4; [1]): 2400 nM; IC50 (CYP3A4; pre-incubation without NADPH): 2500 nM

For `[2H]C1([2H])Oc2cc3c(cc2O1)[C@@H](c1ccc(NC2CN(CCCF)C2)cn1)N(CC(F)(F)CO)[C@H](C)C3` [Example 13, 2,2-Difluoro-3-((5S,7R)-5-(5-((1-(3-fluoropropyl)azetidin-3-yl)amino)pyridin-2-yl)-7-methyl-7,8-dihydro-[1,3]dioxolo[4,5-g]isoquinolin-6(5H)-yl-2,2-d2)propan-1-ol], which IC50 (MCF-7 cells) is on record?
The IC50 was 0.29 nM.

And the Dmax (ERα; MCF7, read-out: Emax degradation (%))?
Its Dmax is 107%.

What about the “IC50 Shift” value (CYP3A4) of the same compound?
Its value is “No TDI”.
